# Source: a melting point compilation (Tetko et al.; mined from patent text by program, amines drawn as free bases though some values may be those of a salt)
row,melting point [°C],SMILES
1,112 to 116,CCCCCNC(=O)c1cnc2cccc(C)n2c1=O
2,204 to 206,Cc1c(S(N)(=O)=O)c(C(F)(F)F)nn1C
3,154 to 156,CCNC(=O)c1cc(NS(=O)(=O)c2ccc(I)cc2)ccc1Oc1cncc(Cl)c1
4,180 to 188,COc1cc(OC)c(C(=O)N2CCc3cc(O)ccc3C2)cc1OC
5,96 to 97,Cc1ccc(S(=O)(=O)OC[C@@H](O)Cc2cc3ccccc3[nH]2)cc1
6,310 to 312,CCOC(=O)c1cnc2c3cc(NS(C)(=O)=O)ccc3ncn2c1=O
7,195 to 197,Cc1cc(C=NN2CCNC2=O)no1
8,165 to 167,CC1=C(N)C(C)C2CC(C)(CN3CCN(c4ccc(-n5ccnc5)cc4)CC3)OC2=C1C (stereo not given)
9,152 to 154,CCCC(=O)Nc1c([N+](=O)[O-])c(C(C)(C)C)nn1-c1c(Cl)cc(C(F)(F)F)cc1Cl
10,50 to 52,C=CCONC(CCC)=C1C(=O)CC(CCC2OCCCO2)CC1=O (stereo not given)
11,239 to 240,Cc1cc2c(c(O)c1O)C(=O)c1c(O)cccc1C2=O
12,142,Cc1nc[nH]c1CSCCNC(=C[N+](=O)[O-])NN
13,37 to 51,COC(=O)CCc1cc2cc(C(=O)c3ccccc3)ccc2n1S(=O)(=O)c1ccccc1
14,202 to 204,CCC(C=O)c1ccc(S(C)(=O)=O)cc1 (stereo not given)
15,146,Brc1ccc2nc(-c3ccccc3)nn2c1
16,143 to 144,COc1ccc(S(=O)(=O)Nc2ccccc2NC=O)cc1
17,147 to 149,COc1ccc2oc(-c3nc4c(s3)NCCCC4C(C)=O)cc2c1 (stereo not given)

row,melting point [°C],SMILES
1,163 to 165,CCOCc1nc2c(N)nc3cc(OCCN)ccc3c2n1CC(C)(C)O
2,217,Cn1c(=O)sc2cc(N3C[C@H](CN)OC3=O)ccc21
3,190 to 192,Cc1ccc(-c2ccc3c(c2)C=C(C(=O)O)C(C)O3)cc1 (stereo not given)
4,31 to 32,C=C1CC1(c1ccc(OC)cc1)c1ccc(OC)cc1
5,164 to 166,COc1c(N2CCNC(CF)(CF)C2)c(F)cc2c(=O)c(C(=O)O)cn(C3CC3F)c12 (stereo not given)
6,109 to 110,O=C(Cc1cc(C(F)(F)F)ns1)c1ccc(Cl)cc1
7,234,FC(F)(F)Oc1ccc2nc(NC(=S)Nc3ccccc3)sc2c1
8,68 to 70,CC1(C)CC(O)CC(C)(C)N1N=Nc1ccccc1
9,222 to 225,CC(C)c1cccc(C(C)C)c1NC(=O)Nc1ccc(Oc2ccc3nc(COc4ccc(CC5SC(=O)NC5=O)cc4)n(C)c3c2)cc1 (stereo not given)
10,234 to 235,FC(F)(F)c1cc(Cl)c(-n2ncc(-c3nc(Br)c(Br)[nH]3)n2)c(Cl)c1
11,244 to 245,CC(C)(C)OC(=O)n1c(=O)n(C2CC3CC(N4CCN(c5ccc(F)cc5)CC4)CC3C2)c2ccccc21 (stereo not given)
12,106 to 108,O=C(C1=C(Nc2ccccc2)CCC1)c1ccccc1Br
13,27 to 30,C=CCSc1ncn(C(=O)N(CC=C)CC=C)n1
14,114 to 115,CCOC(=O)C1C(=O)N(Cc2ccc(Br)cc2F)C(=O)c2cccn21 (stereo not given)
15,120,CC(=O)OC1CSC(Oc2cccnc2N=CN(C)C)C(OC(C)=O)C1OC(C)=O (stereo not given)
16,110,CCCCNS(=O)(=O)c1cc(C(=O)Cl)ccc1Cl
17,100 to 101,COc1ccc(-c2nc(-c3ccccc3)c(N(C)c3ccccc3)s2)cc1

# The next lines start with the molecule.
row,SMILES,melting point [°C]
1,Cc1c(N2CCN(C(C)C)CC2)nn2c(-c3ccnnc3)c(-c3ccc(F)cc3)nc2c1C,222 to 224
2,Cc1c(Cl)c(Oc2ncc(C(F)(F)F)cc2Cl)nn1C(=O)NC(C)C,57 to 59
3,CCOc1cc(Cc2cnc(N)nc2N)cc(OCC)c1C(C)=O,229 to 231
4,Cn1cc(C2=C(c3cn(CCCSc4ncc[nH]4)c4ccccc34)C(=O)NC2=O)c2ccccc21,130 to 132
5,Cc1ccc(S(=O)(=O)NCCCCOc2ccc(-n3ccnc3)cc2)cc1,96 to 98
6,O=C(Nc1ccc(CN2CCCCC2)cc1)c1cccc(OCc2ccccc2)c1,137 to 138
7,O=C(O)/C=C/c1ccc(-c2nc3c(=O)n(CCC4CCCCC4)c(=O)n(CCC4CCCCC4)c3[nH]2)cc1,> 250
8,ON=C1CN2CCC1CC2,117 to 119
9,CC(=O)N1N=C(c2ccncc2)OC1c1c(F)cccc1F (stereo not given),119 to 121
10,Clc1ccccc1C1=NCc2nnc(Cc3ccccc3)n2-c2sc3c(c21)CCNC3,192
11,Cc1ccc(N=C2NCCN2)c(Cl)c1Cl,158 to 162
12,CC(C#N)(Cn1nnc2cc(Cl)ccc21)NC(=O)c1ccc(OC(F)(F)F)cc1 (stereo not given),135
13,CNc1nc(C)c(C)cc1NC(=O)N1CCN(c2cc(C)cc(C)c2)CC1,160 to 162
14,Cc1ccc(-c2c(Cl)ncn2-c2ccc(S(C)(=O)=O)cc2)cc1F,176
15,Nc1ccc(C(=O)CCCN2CCC(OC(=O)c3cc(Cl)c(N)c4c3OCC4)CC2)cc1N,173
16,O=C(O)Cc1ccc(NC(=O)C(COc2ccccc2Cl)NS(=O)(=O)c2ccc(Cl)cc2)cc1 (racemic),190 to 191
17,O=C1C2CSCC1CN(Cc1ccccc1)C2,91 to 92
18,CC(C)(C)OC(=O)N1CCCN(CC2=Nc3cccc4c(=O)[nH]nc(c34)N2)CC1,219 to 221

row,SMILES,melting point [°C]
1,COc1cc(F)c(F)cc1C=O,74
2,CSc1ccc2c(SCc3ccc(N(CCO)CCO)cc3)ccnc2c1,162 to 165
3,Cn1nc(C(F)(F)F)cc1-c1ccc(F)cc1F,37 to 38
4,O=C1C=CC(=O)N1c1ccc(Cl)cc1,109 to 110
5,NS(=O)(=O)c1ccccc1-c1ccc(C(=O)N2Cc3ccc(C(=O)NCc4cccnc4)n3Cc3ccccc32)cc1,153 to 156
6,O[C@@H]1c2ccccc2C=C[C@H]1N1CCCC1 (relative stereo),140 to 141
7,COC(=O)c1c(C)n(-c2cc(N)c(C)cc2C)cc(Cl)c1=O,215
8,C[C@@H]1CN(Cc2ccc(COc3cccc4c3CN(C3CCC(=O)NC3=O)C4=O)cc2)C[C@H](C)O1 (stereo not given in full),164 to 166
9,CC(C)(C)[S@@](=O)NC1(c2ccc3c(C(F)(F)F)c(O[C@H]4CC[C@H](C(C)(C)C)CC4)ccc3c2)COC1,86.8 to 90
10,CCOC(=O)C(=O)CC(=O)c1cn(Cc2ccc(OC)cc2)c2ccccc2c1=O,154 to 156
11,O=C(c1ccc([N+](=O)[O-])cc1)c1ccc2c(n1)C(O)CCCN2 (stereo not given),182 to 185
12,Cc1nc(N)c2nc(O)n(Cc3cc(-c4ccc(F)cc4)no3)c2c1C,250
13,Cc1c(F)c(F)c(Cl)c2c1c(=O)c(C(=O)O)cn2-c1cc(N)c(F)cc1F,271 to 274
14,CCOC(=O)c1cc(OCc2ccccc2)ccc1O,71.5 to 73
15,COc1ccccc1-n1cnc2c(C(N)=O)nc(-c3cccc(O)c3)nc21,230 to 231
16,CN(C)c1ccc(NC(=O)N(C[C@H]2CC[C@H](CN(C(=O)Nc3ccc(N(C)C)cc3)C3CCCCC3)CC2)C2CCCCC2)cc1,128 to 131
17,CC(=O)OCS(=O)(=O)C1=CCC2C3CCC4=CC(=O)C=CC4(C)C3(F)C(O)CC12C (stereo not given),186 to 187
18,Nc1nc(NCCNCC(O)COc2ccccc2)c2ccccc2n1 (stereo not given),152 to 156
